# How the values were obtained:
# [1] = system: acute kidney injury induced by folic acid; assay: Folic acid acute kidney injury model in mice: serum creatinine (Scr) and blood urea nitrogen (BUN); type: in vivo, C57BL/6 mice; details: acute model (FA), 3 days
# [2] = system: chronic kidney injury induced by unilateral ureteral ligation; assay: Unilateral ureteral ligation (UUO) chronic kidney injury model in mice: Scr and BUN; type: in vivo, C57BL/6 mice; details: serum, 14 days
# [3] = system: renal injury markers (Ngal, Havcr1), inflammatory cytokines (TNF, IL-6, IL-1), fibrosis-related factors (α-Sma, Col1a1, Tgfb1); assay: Unilateral ureteral ligation (UUO) chronic kidney injury model in mice: Q-PCR of kidney tissue; type: in vivo, C57BL/6 mice; set-up: Tnf / Il1 / Il6: unit not given here; details: kidney mRNA
# [4] = system: Human keratinocytes (Hacat); assay: Hyaluronic acid and hyaluronidase levels in UVB-irradiated human keratinocytes; type: cell-based; details: UVB 90 mJ/cm^2, 24 h
# Procedure: Human keratinocytes (Hacat) were cultured routinely in DMEM medium containing 10% FBS within a 5% CO2 incubator.
# diabetic nephropathy = assay: Diabetic nephropathy (STZ + HFD, DKD) mice: Scr and BUN; type: in vivo, C57/BL6J mice; details: serum, 8 weeks
# Procedure: Production license number: SCXK(Su)2023-0009. […] Animals were acclimated for 7 days before use in experiments.
# Administer streptozotocin (STZ, 50 mg/kg) via intraperitoneal injection for 5 consecutive days. After 72 hours, select mice with fasting blood glucose levels exceeding 16.7 mmol/L as model mice. […] Model mice were fed a high-fat diet (HFD) providing 60% of energy from fat for 8 weeks. After 8 weeks, gavage administration commenced.
# Specimen Collection: One hour after the last drug administration, enucleate the eyeball to collect blood. Allow blood to stand at room temperature for 2 hours, then centrifuge at 3000 rpm for 20 minutes. Aspirate the serum, aliquot it, and store at -70 °C for future use. After blood collection, euthanize the mice by cervical dislocation. Open the abdominal cavity, remove the kidneys, and dissect away the perirenal fat and capsule. Store the tissue at -70 °C for future use.
# Serum Creatinine (Scr) and Blood Urea Nitrogen (BUN) Assay: For each sample, 10 µL of serum was used for creatinine and urea level detection. Samples were added sequentially strictly following the kit instructions. After incubation at 37 °C, absorbance values were measured using an enzyme-linked immunosorbent assay (ELISA) reader. The concentration levels of each indicator were calculated based on the standard curve.
# CT26 cells = type: in vivo, BALB/c mice; details: CT26, oral 80 µmol/kg/day, 3 weeks
# 4T1 cells = type: in vivo, BALB/c mice; details: 4T1, oral 40 µmol/kg/day, 3 weeks
# Procedure: 4T1 cells were cultured and expanded in vitro. […] A 100 µL aliquot of this suspension was injected subcutaneously into the left forelimb axilla of female BALB/c mice. […] Daily oral administration was performed for 3 weeks. During the treatment period, mouse body weight and tumor diameter were measured daily. At the end of the experiment, mice were euthanized by cervical dislocation, and tumors were removed for weighing. Tumor volume (TV) was calculated using the formula: TV = 1/2 × a × b^2, where a represents the longest diameter of the tumor and b represents the shortest diameter.
# [5] = system: MC903-induced atopic dermatitis (AD); assay: MC903-induced ear atopic dermatitis mouse model, oral Compound 20: dermatitis score, ear thickness, serum IgE; details: for IgE: serum, AD mice
smiles,measurement,setting,value
C=C1C(=O)O[C@@H]2[C@@H]3[C@]4(CC[C@@]3(C)O)C[C@]4(C)CC[C@@H]12 [compound 1],BUN,[1]; oral gavage 0.1 mg/kg,31.46±2.54
same,Scr,[1]; oral gavage 0.1 mg/kg,108.48±11.76
same,BUN,[1]; oral gavage 1 mg/kg,21.33±2.21
same,Scr,[1]; oral gavage 1 mg/kg,71.95±5.74
same,BUN,[2]; oral gavage 0.1 mg/kg,18.41±1.82
same,Scr,[2]; oral gavage 0.1 mg/kg,176.35±17.11
same,BUN,[2]; oral gavage 1 mg/kg,11.01±1.54
same,Scr,[2]; oral gavage 1 mg/kg,104.65±16.26
same,Col1a1,[3]; oral 0.1 mg/kg,16.09±3.57
same,Havcr1,[3]; oral 0.1 mg/kg,12.56±1.95
same,Il1,[3]; oral 0.1 mg/kg,6.05±0.49
same,Il6,[3]; oral 0.1 mg/kg,16.52±1.69
same,Ngal,[3]; oral 0.1 mg/kg,37.82±4.85
same,Tgfb1,[3]; oral 0.1 mg/kg,2.04±0.24
same,Tnf,[3]; oral 0.1 mg/kg,6.41±1.46
same,α-Sma,[3]; oral 0.1 mg/kg,2.32±0.54
same,Col1a1,[3]; oral 1 mg/kg,9.45±1.03
same,Havcr1,[3]; oral 1 mg/kg,8.54±1.38
same,Il1,[3]; oral 1 mg/kg,3.99±0.31
same,Il6,[3]; oral 1 mg/kg,6.50±1.51
same,Ngal,[3]; oral 1 mg/kg,21.66±6.00
same,Tgfb1,[3]; oral 1 mg/kg,1.55±0.19
same,Tnf,[3]; oral 1 mg/kg,6.59±1.19
same,α-Sma,[3]; oral 1 mg/kg,1.54±0.12
same,Hyaluronic acid,[4]; 0.01 µM,8.73 ± 1.62 ng/mL
same,Hyaluronidase,[4]; 0.01 µM,124.41 ± 16.49 ng/mL
same,Hyaluronic acid,[4]; 0.1 µM,14.17 ± 1.30 ng/mL
same,Hyaluronidase,[4]; 0.1 µM,88.07 ± 10.17 ng/mL
same,Hyaluronic acid,[4]; 1 µM,19.51 ± 1.87 ng/mL
same,Hyaluronidase,[4]; 1 µM,56.03 ± 5.53 ng/mL
same,Hyaluronic acid,[4]; 10 µM,24.82 ± 1.13 ng/mL
same,Hyaluronidase,[4]; 10 µM,37.73 ± 11.49 ng/mL
CN(C)C[C@@H]1C(=O)O[C@H]2[C@H]1CC[C@@]1(C)C[C@]13CC[C@@](C)(O)[C@H]23 [compound 20],BUN,[1]; oral gavage 1 mg/kg,16.74±1.42
same,Scr,[1]; oral gavage 1 mg/kg,64.94±9.68
same,BUN,[2]; oral gavage 1 mg/kg,9.39±0.92
same,Scr,[2]; oral gavage 1 mg/kg,64.50±7.13
same,α-Sma,"[3]; oral 1 mg/kg, 1 mg/kg",1.26±0.18
same,BUN,diabetic nephropathy; gavage 1 mg/kg,37.01±2.50
same,Scr,diabetic nephropathy; gavage 1 mg/kg,17.72±1.658
same,BUN,diabetic nephropathy; gavage 10 mg/kg,19.71±1.22
same,Scr,diabetic nephropathy; gavage 10 mg/kg,12.96±0.78
same,antitumor effects,CT26 cells,tumor-inhibiting effects
same,antitumor effects,4T1 cells,no significant antitumor effects
same,atopic dermatitis score,"[5]; oral 0.1 mg/kg, Day 1",0.00±0.00
same,ear thickness,"[5]; oral 0.1 mg/kg, Day 1",0.20±0.00 mm
same,atopic dermatitis score,"[5]; oral 0.1 mg/kg, Day 3",0.67±0.21
same,ear thickness,"[5]; oral 0.1 mg/kg, Day 3",0.24±0.00 mm
same,atopic dermatitis score,"[5]; oral 0.1 mg/kg, Day 5",1.33±0.21
same,ear thickness,"[5]; oral 0.1 mg/kg, Day 5",0.26±0.00 mm
same,atopic dermatitis score,"[5]; oral 0.1 mg/kg, Day 7",2.17±0.17
same,ear thickness,"[5]; oral 0.1 mg/kg, Day 7",0.26±0.00 mm
same,atopic dermatitis score,"[5]; oral 0.1 mg/kg, Day 8",2.50±0.22
same,ear thickness,"[5]; oral 0.1 mg/kg, Day 8",0.27±0.00 mm
same,atopic dermatitis score,"[5]; oral 0.1 mg/kg, Day 9",3.00±0.26
same,ear thickness,"[5]; oral 0.1 mg/kg, Day 9",0.28±0.00 mm
same,atopic dermatitis score,"[5]; oral 0.1 mg/kg, Day 10",3.50±0.22
same,ear thickness,"[5]; oral 0.1 mg/kg, Day 10",0.29±0.00 mm
same,atopic dermatitis score,"[5]; oral 0.1 mg/kg, Day 11",3.67±0.21
same,ear thickness,"[5]; oral 0.1 mg/kg, Day 11",0.30±0.00 mm
same,atopic dermatitis score,"[5]; oral 0.1 mg/kg, Day 12",3.33±0.21
same,ear thickness,"[5]; oral 0.1 mg/kg, Day 12",0.30±0.00 mm
same,atopic dermatitis score,"[5]; oral 0.1 mg/kg, Day 13",3.00±0.00
same,ear thickness,"[5]; oral 0.1 mg/kg, Day 13",0.30±0.00 mm
same,atopic dermatitis score,"[5]; oral 0.1 mg/kg, Day 14",2.67±0.21
same,ear thickness,"[5]; oral 0.1 mg/kg, Day 14",0.29±0.00 mm
same,atopic dermatitis score,"[5]; oral 1 mg/kg, Day 1",0.00±0.00
same,ear thickness,"[5]; oral 1 mg/kg, Day 1",0.20±0.00 mm
same,atopic dermatitis score,"[5]; oral 1 mg/kg, Day 3",0.50±0.22
same,ear thickness,"[5]; oral 1 mg/kg, Day 3",0.23±0.00 mm
same,atopic dermatitis score,"[5]; oral 1 mg/kg, Day 5",1.17±0.17
same,ear thickness,"[5]; oral 1 mg/kg, Day 5",0.24±0.00 mm
same,atopic dermatitis score,"[5]; oral 1 mg/kg, Day 7",1.67±0.21
same,ear thickness,"[5]; oral 1 mg/kg, Day 7",0.26±0.00 mm
same,atopic dermatitis score,"[5]; oral 1 mg/kg, Day 8",2.17±0.17
same,ear thickness,"[5]; oral 1 mg/kg, Day 8",0.27±0.00 mm
same,atopic dermatitis score,"[5]; oral 1 mg/kg, Day 9",2.83±0.17
same,ear thickness,"[5]; oral 1 mg/kg, Day 9",0.28±0.00 mm
same,atopic dermatitis score,"[5]; oral 1 mg/kg, Day 10",3.00±0.00
same,ear thickness,"[5]; oral 1 mg/kg, Day 10",0.28±0.00 mm
same,atopic dermatitis score,"[5]; oral 1 mg/kg, Day 11",3.17±0.17
same,ear thickness,"[5]; oral 1 mg/kg, Day 11",0.28±0.00 mm
same,atopic dermatitis score,"[5]; oral 1 mg/kg, Day 12",2.67±0.21
same,ear thickness,"[5]; oral 1 mg/kg, Day 12",0.27±0.00 mm
same,atopic dermatitis score,"[5]; oral 1 mg/kg, Day 13",2.50±0.22
same,ear thickness,"[5]; oral 1 mg/kg, Day 13",0.27±0.00 mm
same,atopic dermatitis score,"[5]; oral 1 mg/kg, Day 14",2.00±0.00
same,ear thickness,"[5]; oral 1 mg/kg, Day 14",0.27±0.00 mm
same,atopic dermatitis score,"[5]; oral 10 mg/kg, Day 1",0.00±0.00
same,ear thickness,"[5]; oral 10 mg/kg, Day 1",0.20±0.00 mm
same,atopic dermatitis score,"[5]; oral 10 mg/kg, Day 3",0.67±0.21
same,ear thickness,"[5]; oral 10 mg/kg, Day 3",0.23±0.00 mm
same,atopic dermatitis score,"[5]; oral 10 mg/kg, Day 5",1.00±0.00
same,ear thickness,"[5]; oral 10 mg/kg, Day 5",0.25±0.00 mm
same,atopic dermatitis score,"[5]; oral 10 mg/kg, Day 7",2.00±0.00
same,ear thickness,"[5]; oral 10 mg/kg, Day 7",0.26±0.00 mm
same,atopic dermatitis score,"[5]; oral 10 mg/kg, Day 8",2.50±0.22
same,ear thickness,"[5]; oral 10 mg/kg, Day 8",0.27±0.00 mm
same,atopic dermatitis score,"[5]; oral 10 mg/kg, Day 9",2.83±0.17
same,ear thickness,"[5]; oral 10 mg/kg, Day 9",0.27±0.00 mm
same,atopic dermatitis score,"[5]; oral 10 mg/kg, Day 10",2.67±0.42
same,ear thickness,"[5]; oral 10 mg/kg, Day 10",0.27±0.00 mm
same,atopic dermatitis score,"[5]; oral 10 mg/kg, Day 11",3.00±0.26
same,ear thickness,"[5]; oral 10 mg/kg, Day 11",0.27±0.00 mm
same,atopic dermatitis score,"[5]; oral 10 mg/kg, Day 12",2.33±0.33
same,ear thickness,"[5]; oral 10 mg/kg, Day 12",0.25±0.00 mm
same,atopic dermatitis score,"[5]; oral 10 mg/kg, Day 13",1.67±0.21
same,ear thickness,"[5]; oral 10 mg/kg, Day 13",0.25±0.00 mm
same,atopic dermatitis score,"[5]; oral 10 mg/kg, Day 14",1.50±0.22
same,ear thickness,"[5]; oral 10 mg/kg, Day 14",0.24±0.01 mm
same,IgE,[5]; oral 0.1 mg/kg,239.26 ± 48.93 ng/mL
same,IgE,[5]; oral 1 mg/kg,167.90 ± 21.03 ng/mL
same,IgE,[5]; oral 10 mg/kg,145.68 ± 23.19 ng/mL

# From patent publication EP4813381A1, “PHARMACEUTICAL USE OF GUAIANE SESQUITERPENE DERIVATIVE” (Nanjing University Of Chinese Medicine, priority 2023, dated 2025)
